Test results from paper PMC5954141, “Structure-guided Discovery of Dual-recognition Chemibodies” (Scientific Reports, 2018).

target: T1, DPP-IV enzyme (Rattus norvegicus, UniProt P14740); assay: DPP-IV dipeptide (Ala-Pro-AFC) cleavage inhibition, fluorescent assay; format: biochemical; details: Table S6; Ala-Pro-AFC at 10 µM, one-hour incubation, triplicate; read-out: measured IC50's
T1 construct: made in house
Description: DPP-IV catalytic activity and inhibition of dipeptide cleavage was measured using a fluorescent assay performed at room temperature in 384-well, black polypropylene microplates. […] Assay data shown in Fig. 3 were performed with a one-hour incubation time. The data were fit to the four-parameter model using a Levenburg–Marquardt nonlinear regression algorithm. Figure 3b,c were generated using GraphPad Prism v6.
Rat DPP-IV enzyme and Fab mutant proteins were expressed and purified as previously described. […] For x-ray diffraction data collection, crystals were transferred into well solution with 30% (w/v) ethylene glycol and then flash frozen in liquid nitrogen.

T1 sequence (P14740 whole entry): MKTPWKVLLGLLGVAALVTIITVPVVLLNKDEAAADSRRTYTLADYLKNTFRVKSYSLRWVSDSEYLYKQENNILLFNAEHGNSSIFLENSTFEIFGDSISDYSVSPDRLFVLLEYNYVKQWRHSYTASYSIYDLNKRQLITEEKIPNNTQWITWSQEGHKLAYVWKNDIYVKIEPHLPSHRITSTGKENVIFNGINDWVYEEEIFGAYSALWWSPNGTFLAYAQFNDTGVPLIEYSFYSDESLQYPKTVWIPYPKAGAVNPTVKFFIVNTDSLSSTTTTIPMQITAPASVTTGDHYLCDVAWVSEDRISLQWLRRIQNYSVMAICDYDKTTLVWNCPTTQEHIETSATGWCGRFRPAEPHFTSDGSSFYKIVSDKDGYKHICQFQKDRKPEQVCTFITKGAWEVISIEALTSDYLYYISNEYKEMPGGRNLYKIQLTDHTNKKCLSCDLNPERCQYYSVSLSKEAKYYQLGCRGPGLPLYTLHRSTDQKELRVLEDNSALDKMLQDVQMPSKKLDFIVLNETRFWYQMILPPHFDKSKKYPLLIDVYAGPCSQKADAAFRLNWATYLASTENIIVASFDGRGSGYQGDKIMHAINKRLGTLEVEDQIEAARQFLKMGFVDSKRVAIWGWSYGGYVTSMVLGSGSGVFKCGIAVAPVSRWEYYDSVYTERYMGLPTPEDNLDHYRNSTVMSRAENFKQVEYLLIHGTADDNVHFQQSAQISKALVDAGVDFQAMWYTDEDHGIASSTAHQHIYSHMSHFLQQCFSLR

IC50 | Compound
160 nM | CC(=O)NCCOCCOCCOCCOCCOCCOCCOCCOCCOCCOCCOCCNC(=O)CN1CCN(C(=O)C[C@H](N)Cc2cc(F)c(F)cc2F)CC1 [compound 6 (n = 11)]
146 nM | CC(=O)NCCOCCOCCOCCOCCOCCNC(=O)CN1CCN(C(=O)C[C@H](N)Cc2cc(F)c(F)cc2F)CC1 [compound 6 (n = 5)]
152 nM | CC(=O)NCCOCCOCCOCCOCCOCCOCCOCCOCCOCCOCCNC(=O)CN1CCN(C(=O)C[C@H](N)Cc2cc(F)c(F)cc2F)CC1 [compound 6 (n = 10)]
124 nM | CC(=O)NCCOCCOCCOCCOCCOCCOCCOCCOCCNC(=O)CN1CCN(C(=O)C[C@H](N)Cc2cc(F)c(F)cc2F)CC1 [compound 6 (n = 8)]
141 nM | CC(=O)NCCOCCOCCOCCNC(=O)CN1CCN(C(=O)C[C@H](N)Cc2cc(F)c(F)cc2F)CC1 [compound 6 (n = 3)]
119 nM | CC(=O)NCCOCCOCCOCCOCCOCCOCCNC(=O)CN1CCN(C(=O)C[C@H](N)Cc2cc(F)c(F)cc2F)CC1 [compound 6 (n = 6)]
134 nM | CC(=O)NCCOCCOCCOCCOCCOCCOCCOCCNC(=O)CN1CCN(C(=O)C[C@H](N)Cc2cc(F)c(F)cc2F)CC1 [compound 6 (n = 7)]
100 nM | CC(=O)NCCOCCOCCOCCOCCNC(=O)CN1CCN(C(=O)C[C@H](N)Cc2cc(F)c(F)cc2F)CC1 [compound 6 (n = 4)]

same assay, conditions: dipeptide substrate cleavage; read-out: DPP-IV IC50

IC50 | Compound
130 nM | CNC(=O)CN1CCN(C(=O)C[C@H](N)Cc2cc(F)c(F)cc2F)CC1.Cl [compound 2, (R)-2-(4-(3-amino-4-(2,4,5-trifluorophenyl)butanoyl)piperazin-1-yl)-N-methylacetamide hydrochloride]
105 nM | COCCOCCOCCOCCNC(=O)CN1CCN(C(=O)C[C@H](N)Cc2cc(F)c(F)cc2F)CC1 [compound 4 (n = 3)]
70 nM | COCCOCCOCCOCCOCCOCCOCCOCCNC(=O)CN1CCN(C(=O)C[C@H](N)Cc2cc(F)c(F)cc2F)CC1 [compound 4 (n = 7)]

same assay, conditions: same experimental conditions

potency loss as compared with sitagliptin | Compound
seven-fold | CNC(=O)CN1CCN(C(=O)C[C@H](N)Cc2cc(F)c(F)cc2F)CC1.Cl [compound 2, (R)-2-(4-(3-amino-4-(2,4,5-trifluorophenyl)butanoyl)piperazin-1-yl)-N-methylacetamide hydrochloride]
